These results are taken from patent US8227618B2, “Amine-derivatives having NPY Y5 receptor antagonistic activity and the uses thereof” (Shionogi & Co., Ltd., priority 2009, dated 2012).

pIC50: −log10 of the molar value.

Data set [1] deals with T1, mouse NPY Y5 receptor (Mus musculus, UniProt O70342).
T1 construct: expressed in transfected cells
T1 sequence (O70342 1-466): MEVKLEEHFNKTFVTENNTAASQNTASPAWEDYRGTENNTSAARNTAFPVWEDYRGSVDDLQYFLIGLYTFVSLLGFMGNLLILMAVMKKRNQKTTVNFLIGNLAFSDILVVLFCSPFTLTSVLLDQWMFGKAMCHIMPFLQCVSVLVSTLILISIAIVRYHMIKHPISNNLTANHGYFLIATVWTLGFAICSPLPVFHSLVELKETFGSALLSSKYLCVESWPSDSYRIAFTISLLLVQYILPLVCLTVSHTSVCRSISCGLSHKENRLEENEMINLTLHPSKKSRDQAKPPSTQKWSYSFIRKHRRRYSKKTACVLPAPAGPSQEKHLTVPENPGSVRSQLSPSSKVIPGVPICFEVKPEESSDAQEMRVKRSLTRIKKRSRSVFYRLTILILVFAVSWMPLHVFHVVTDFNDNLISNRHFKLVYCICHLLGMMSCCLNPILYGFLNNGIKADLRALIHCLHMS
As to the kind of experiment: Affinity for mouse NPY Y5 receptor ([125I] peptide YY binding, CHO cell membranes). The note with it: CHO membranes expressing mouse NPY Y5 receptor, [125I] peptide YY 60 pM. The source says:
cDNA sequence encoding a mouse NPY Y5 receptor (Biochim. Biophys. Acta 1328:83-89, 1997) was cloned in a vector (pME18S, Takebe et al. Mol. Cell. Biol. 8, 466-472). The obtained expression vector was transfected into CHO cells as a host by using Lipofect AMINE reagent (Trademark, Gico BRL Co., Ltd.) according to the instruction manual. The cells that stably express mouse NPY Y5 receptor were obtained.
The membranes prepared from the CHO cells expressing mouse NPY Y5 receptor, the compound of this invention and 30,000 cpm [^125I] peptide YY (60 pM of final concentration: Amersham) were incubated in the assay buffer (20 mM HEPES-Hanks buffer containing 0.1% bovine serum albumin, pH 7.4) at 25° C. for 2 hours, and then the membrane was filtered from the mixture through a glassfilter (GF/C) presoaked with 1% polyethyleneimine. After washing with 50 mM Tris-HCl buffer (pH 7.4), radioactivity retained on the filters was quantified with a gamma counter.
Nonspecific binding was defined as the amount of radioactivity bound to the membranes after incubation in the presence of 200 nM of peptide YY. The 50% inhibitory concentration of the test compound against the specific peptide YY binding (IC50 value) was calculated (Inui, A. et al. Endocrinology 131, 2090-2096 (1992)).

The target in data set [2] is T2, NPY Y5 receptor (Mus musculus, UniProt O70342).
T2 construct: from tissue; host or cells: brain of living male C57BL/6J mice
T2 sequence (O70342 1-466): T1 sequence (O70342 1-466)
As to the kind of experiment: Inhibition of Y5 agonist-induced food intake in mice. The class given is in vivo, C57BL/6J mice. The conditions noted are these: 4 hours after dosing. The protocol: Under diethylether anesthesia the skull of male C57BL/6J mice (12-14 week old, 25-30 g) was exposed by making an incision about 1-cm long from external occipital crest to nasal dorsum, and then drilled in the 1-mm lateral position to the left following 1-mm posterior from bregma. After recovery from anesthesia mice were dosed with either 0.5% hydroxypropylmethyl cellulose solution (vehicle, Shin-Etsu Chemical Co., Ltd) or the compounds of this invention suspended in the 0.5% hydroxypropylmethyl cellulose solution. At one hour after the treatment, each animal received saline or a NPY Y5 receptor specific agonist, [cPP^1-7, NPY^19-23, Ala^31, Aib^32, Gln^34]-hPancreatic Polypeptide (0.1 nmol/1.5 μL saline/mouse) through the skull opening using a canula. Residual food was measured at 2 and 4 hours after the treatment. The inhibition ratio of Y5 agonist-induced food intake by the compounds was calculated as follows; inhibition ratio (%)=[1−(food intake (g) by the compound treated and Y5 agonist received mice−food intake (g) by the vehicle treated and saline received mice)/(food intake (g) by the vehicle treated and Y5 agonist received mice−food intake (g) by the vehicle treated and saline received mice)]×100.

Data set [3] concerns the target T3, P-gp (Mus musculus, UniProt P21447).
T3 construct: effectively excreted through P-gp from the brain to vessels; from tissue; host or cells: brain / blood-brain barrier of living C57BL/6J mice
Briefly: Potential for drug-drug interactions through P-gp in vivo (Kp with/without cyclosporin A). The conditions noted are these: mice, Kp with versus without cyclosporin A (20 mg/kg). The method, then: To examine the potential for drug-drug interactions through P-gp in vivo, the Kp values of compounds of this invention with (KpCSA) or without (KpCont.) cyclosporin A (20 mg/kg), a P-gp inhibitor, were calculated. The KpCSA value of Compound (I-72) was 1.14, and the calculated KpCSA KpCont. ratio was 0.9.
On the other hand the potential for drug-drug interactions through P-pg of amide compound B which has similar structure of Compound (1-72) was also examined in mice. The KpCont. and KpCSA were 0.04 and 0.84, respectively.

Data set [4] can be described thus: Suppression of body weight gain in high-fat diet-induced obese mice. The data set is classed as in vivo, C57BL/6J mice. The conditions noted are these: 6 mg/kg b.i.d. for 3 weeks, versus vehicle. The protocol:
Prior to administration of the compounds of this invention, male C57BL/6J mice were given a high-fat diet to induce obese. The high-fat diet-induced obese mice (13-14 week old, body weight 28-33 g) were dosed with 0.5% hydroxypropylmethyl cellulose solution (vehicle, Shin-Etsu Chemical Co., Ltd) or the compounds of this invention suspended in the 0.5% hydroxypropylmethyl cellulose solution twice a day (b.i.d.) for 3 weeks with the same diet. The changes in body weight were monitored daily.

Setting [5] is: rows without asterisk (6 mg/kg per text).

The term pIC50 denotes −log10 of the IC50, conventionally taken in molar units. Read a high pIC50 as a low IC50.

T3 sequence (P21447 whole entry): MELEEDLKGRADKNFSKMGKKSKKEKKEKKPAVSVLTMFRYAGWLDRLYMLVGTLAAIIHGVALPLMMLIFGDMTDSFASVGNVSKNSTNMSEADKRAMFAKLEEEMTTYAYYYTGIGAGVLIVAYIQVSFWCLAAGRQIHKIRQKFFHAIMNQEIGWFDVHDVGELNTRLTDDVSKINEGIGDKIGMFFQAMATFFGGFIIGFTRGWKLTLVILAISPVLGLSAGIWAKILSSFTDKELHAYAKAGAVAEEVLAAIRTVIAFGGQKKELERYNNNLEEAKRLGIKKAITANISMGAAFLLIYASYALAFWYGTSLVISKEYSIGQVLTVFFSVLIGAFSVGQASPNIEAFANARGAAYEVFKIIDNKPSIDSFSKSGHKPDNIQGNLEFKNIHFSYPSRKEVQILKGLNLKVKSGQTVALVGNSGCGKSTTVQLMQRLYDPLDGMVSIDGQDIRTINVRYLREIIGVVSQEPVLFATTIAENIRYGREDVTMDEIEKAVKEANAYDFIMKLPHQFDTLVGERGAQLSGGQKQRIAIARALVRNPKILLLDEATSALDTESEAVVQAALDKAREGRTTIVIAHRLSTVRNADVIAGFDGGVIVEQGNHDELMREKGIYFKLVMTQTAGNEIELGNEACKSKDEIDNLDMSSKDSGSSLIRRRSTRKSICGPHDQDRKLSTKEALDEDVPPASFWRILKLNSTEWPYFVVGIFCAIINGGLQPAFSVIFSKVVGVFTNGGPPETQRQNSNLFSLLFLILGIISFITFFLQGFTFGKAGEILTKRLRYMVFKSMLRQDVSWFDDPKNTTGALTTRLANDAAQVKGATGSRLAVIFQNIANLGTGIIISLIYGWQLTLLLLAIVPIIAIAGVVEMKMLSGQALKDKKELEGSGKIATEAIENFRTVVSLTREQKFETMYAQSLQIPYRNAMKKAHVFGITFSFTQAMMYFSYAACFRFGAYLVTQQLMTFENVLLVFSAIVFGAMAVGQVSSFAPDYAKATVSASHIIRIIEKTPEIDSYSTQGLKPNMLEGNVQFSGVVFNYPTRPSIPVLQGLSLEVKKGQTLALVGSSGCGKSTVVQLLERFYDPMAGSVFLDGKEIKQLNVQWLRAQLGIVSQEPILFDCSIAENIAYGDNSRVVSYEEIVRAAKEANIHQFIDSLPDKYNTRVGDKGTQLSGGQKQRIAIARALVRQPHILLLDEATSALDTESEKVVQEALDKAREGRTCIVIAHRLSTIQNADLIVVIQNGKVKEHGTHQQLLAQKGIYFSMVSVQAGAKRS

For the compound `CCC(C)S(=O)(=O)NC[C@H]1CC[C@H](Nc2nc3ccc(F)cc3o2)CC1` (stereo partly shown) [Ij-161], in data set [1], the pIC50 is 9.16. The “Inhibition ratio of Y5 agonist-induced food intake” value (“Inhibition ratio” for short) in data set [2] (*Dose: 1.5 mg/kg) is given as 15.8%*.
Consider `CC(C)(C)S(=O)(=O)NC[C@H]1CC[C@H](Nc2nc3ccc(F)cc3o2)CC1` [Ij-159], for which the pIC50 in data set [1] was 9.22. The “Inhibition ratio” value in data set [2] (setting [5]) amounted to 83.2%.
`CCS(=O)(=O)N[C@H]1CC[C@H](CNc2ccc(S(=O)(=O)c3ccc(F)cc3)cc2)CC1` [Ii-34] showed a pIC50 in data set [1] of 7.96.
Consider `CCS(=O)(=O)NC[C@H]1CC[C@H](Nc2nc3ccccc3s2)CC1` [Ij-149], for which the pIC50 in data set [1] is 9.04. Also, the “Inhibition ratio” value in data set [2] (setting [5]) came to 62.6%.
Take `C[C@@H]1CN(c2ccc(NC(=O)[C@H]3CC[C@H](NS(=O)(=O)C(C)(C)C)CC3)cc2)C[C@H](C)O1` [B, reference compound]: the KpCSA/KpCont. ratio in data set [3] is given as 20.5.
Take `CC(C)(C)S(=O)(=O)NC[C@H]1CC[C@H](Nc2ccn(-c3ccccc3F)n2)CC1` [Ij-110]: the “Inhibition ratio” value in data set [2] (setting [5]) is recorded as 90.3%.
`CC(C)S(=O)(=O)NC[C@H]1CC[C@H](Nc2nc3cc(F)ccc3o2)CC1` [Ij-155] had a pIC50 in data set [1] of 9.06. Besides, the “Inhibition ratio” value in data set [2] (*Dose: 1.5 mg/kg) worked out at 56.1%*.
For `CC(C)S(=O)(=O)NC[C@H]1CC[C@H](Nc2nc3cc(F)ccc3s2)CC1` [Ij-151], in that order: 9.92 and 78.4%*.
Consider `CC(C)(C)S(=O)(=O)NC[C@H]1CC[C@H](Nc2ccc3ccccc3n2)CC1` [Ij-59], for which, in data set [1], the pIC50 is 8.60.
Turning to `CC(C)S(=O)(=O)NC[C@H]1CC[C@H](Nc2nc3cccc(F)c3s2)CC1` [Ij-153], the pIC50 in data set [1] is 9.92. In addition, the “Inhibition ratio” value in data set [2] (setting [5]) amounted to 73.0%.
For the compound `CC(C)(C)S(=O)(=O)NC[C@H]1CC[C@H](Nc2nc3ccc(C(F)(F)F)cc3s2)CC1` [Ij-66], the pIC50 in data set [1] is 9.41.
On the same count and under the same terms, the figure for `CCCn1c(=O)oc2cc(NC[C@H]3CC[C@H](NS(=O)(=O)CC)CC3)ccc21` [Ii-16] is 8.92.
Consider `CC(C)S(=O)(=O)NC[C@H]1CC[C@H](Nc2nc3cc(Cl)ccc3s2)CC1` [Ij-154], for which, in data set [1], the pIC50 was 9.77. The “Inhibition ratio” value in data set [2] (setting [5]) is 81.3%.
Turning to `CCC(C)S(=O)(=O)NC[C@H]1CC[C@H](Nc2nc3cc(F)ccc3o2)CC1` (stereo partly shown) [Ij-160], in data set [1], the pIC50 is 9.26. The “Inhibition ratio” value in data set [2] (*Dose: 1.5 mg/kg) turned out to be 36.6%*.
The matching figures for `CC(C)S(=O)(=O)NC[C@H]1CC[C@H](Nc2nc3ccc(F)cc3s2)CC1` [Ij-152]: 9.46 and 62.6%*.
Regarding `CC(C)S(=O)(=O)N[C@H]1CC[C@H](CNc2cc(F)cc(N3CCOCC3)c2)CC1` [Ii-55], the “Inhibition ratio” value in data set [2] (setting [5]) came to 64.3%.
Regarding `CCS(=O)(=O)NC[C@H]1CC[C@H](Nc2ccn(-c3ccccc3F)n2)CC1` [Ij-112], the Body weight gain entry in data set [4] is recorded as “suppresses Body Weight Gain”.
In data set [1], `CCS(=O)(=O)NC[C@H]1CC[C@H](Nc2nc3ccccc3o2)CC1` [Ij-150] showed a pIC50 of 8.33. Moreover, the “Inhibition ratio” value in data set [2] (setting [5]) is on record as 25.3%.
With `CC(C)S(=O)(=O)NC[C@H]1CC[C@H](Nc2ccn(-c3ccccc3Cl)n2)CC1` [Ij-157], in data set [1], the pIC50 was 9.80.
In data set [1], `CC(C)(C)S(=O)(=O)NC[C@H]1CC[C@H](Nc2nc3cc(F)ccc3o2)CC1` [Ij-158] had a pIC50 of 9.07. The “Inhibition ratio” value in data set [2] (setting [5]) was 70.5%.
In data set [1], `CC(C)S(=O)(=O)NC[C@H]1CC[C@H](Nc2ccc(C(F)(F)F)cn2)CC1` [Ij-1] gave a pIC50 of 9.15.
As for `CC1CC(C)CN(c2cccc(NC[C@H]3CC[C@H](NS(=O)(=O)C(C)(C)C)CC3)c2)C1` (stereo partly shown) [Ii-1], the pIC50 in data set [1] was 10.00.
Regarding `Cn1c(=O)oc2cc(NC[C@H]3CC[C@H](NS(=O)(=O)C(C)(C)C)CC3)cc(F)c21` [Ii-45], the Body weight gain result in data set [4] is “suppresses Body Weight Gain”. Moreover, the “Inhibition ratio” value in data set [2] (setting [5]) is recorded as 76.2%.
In the case of `CCS(=O)(=O)NC[C@H]1CC[C@H](Nc2ccc(-c3ccccc3)cn2)CC1` [Ij-4], the “Inhibition ratio” value in data set [2] (setting [5]) turned out to be 88.2%.
Turning to `CC(C)S(=O)(=O)NC[C@H]1CC[C@H](Nc2nc3ccc(F)cc3o2)CC1` [Ij-156], in data set [1], the pIC50 was 9.17. Further, in data set [2] (**Dose: 12.5 mg/kg), the “Inhibition ratio” value amounted to 90.4%**.
Consider `C[C@@H]1CN(c2ccc(NC[C@H]3CC[C@H](NS(=O)(=O)C(C)(C)C)CC3)cc2)C[C@H](C)O1` [Compound I-72], for which the KpCSA/KpCont. ratio in data set [3] was determined as 0.9.
In turn, `CC(C)S(=O)(=O)NC[C@H]1CC[C@H](Nc2ccc(OC3CCCC3)nn2)CC1` [Ij-52] had a pIC50 in data set [1] of 9.00.
